# How the values were obtained:
# THP-1-MF0 macrophage = assay: Phagocytosis of fluorescent E. coli bioparticles by THP-1-MF0 macrophages; format: cell-based, human; settings: for (Aggregate) Rel. PD Score / Potency Rel. Pot. / Single comp. score Rel. Pot. / Single comp. score Rel Eff.: relative to LXA4 (1); for EC50: 30 min pretreatment, 2 h bioparticles, read-out: Potency EC50
# Protocol: Mycoplasma-free THP-1 monocytes were grown in an RPMI 1640 (Gibco) medium containing 2 mM L-glutamine, 2.00 g/L sodium bicarbonate, and 2.00 g/L glucose. Then, 10% (v/v) heat-inactivated FBS (30 min at 56 °C) and Pen-Strep (100 U/mL to 100 μg/mL) were supplemented to the growth media.
# Cell adherence was allowed for 1 h and 30 min at 37 °C/5% CO2. Cells were then treated for 30 min with controls and phagocytosis effectors for testing (vehicle, LXs, Rvs, or sLXms). Subsequently, media containing controls/effectors were vacuum-aspirated and replaced with a solution containing fluorescently prelabeled E. coli-derived bioparticles and cells were incubated in the dark for 2 h at 37 °C/5% CO2 to allow particle ingestion by monocytes/macrophages. After that, media containing bioparticles were vacuum-aspirated and replaced with a solution containing trypan blue and cells were incubated for 1 min at room temperature to allow quenching of unbound particles to ensure specificity of the fluorescent signal, deriving only from ingested particles (not shown). After aspiration of Trypan, the fluorescence reading was immediately performed at the following conditions: end point; reading from the bottom of the plate; Ex.480/Em.520 nm.
# C57bl/6 mice = assay: Murine carrageenan-induced paw edema; format: in vivo, mouse; settings: for % relative to carageenan-induced level: Veh = 100; for % relative to carageenan-induced level / % reduction relative to carageenan-induced level: (R)-6, (R)-17 2 μg/kg, Naproxen 50 mg/kg p.o.; for Paw swelling Index: Mean: n = 3
# Protocol: Then, 50 μL of 1% carrageenan was injected with an equivalent volume of saline injected into the contralateral paw. Inflammation was presented as the difference in paw thickness over time using gauge (POCO 2T; Kroeplin, GmbH, Surrey, U.K.). Data are presented as mean ± SEM, n = 3 mice/treatment group.
# THP-1 LUCIA monocytes [1] = assay: Intrinsic cytotoxicity: LDH release without LPS; format: cell-based, human; settings: for Intrinsic Toxicity Level: LDH-associated level of cytotoxicity (high / moderate / low); for Intrinsic Toxicity TC50 (pM): half-maximal intrinsic LDH-associated toxic activity, no LPS
# Protocol: We investigated the potential cytotoxicity of all candidate sLXms by assaying LDH release.[50] The response to LPS was arbitrarily set to 100%, and values were expressed relative to this. As previously reported by others, LPS provokes LDH release.[51] […] Ultimately, untreated cells defined the spontaneous cell release thresholds.
# Lactate dehydrogenase (LDH) was assayed in cell supernatants to investigate possible cytotoxicity of the lead compound. LDH is rapidly released into the culture medium after disruption of the plasma membrane.[67],[69] After 24 h of exposure to sLXms, vehicle, or controls, followed by LPS stimulation, as described above, THP-1-Lucia NF-κB-cell supernatants were collected and LDH was assayed. Cytotoxicity was evaluated relative to vehicle controls. Maximum releasable LDH was determined in cells lysed with 2% Triton-X-100 (Sigma-Aldrich, Ireland). LDH levels were assessed by reading the absorbance at 490 nm (protein) and 690 nm (background noise), using a spectrophotometer (SPECTRAMAX M2, Molecular Devices (U.K.) Limited).
# THP-1 LUCIA monocytes [2] = assay: In vitro safety study: Safety index (Si), activity versus toxicity; format: cell-based, human; settings: for IC50: Homo sapiens, THP-1, highest IC50 among the LPS-challenged assays (NF-κB activity, cytokine, LDH release), read-out: Extrinsic Activity hIC50; for Safety Index TC50/IC50: ratio of intrinsic TC50 to extrinsic hIC50
# Protocol: A postanalysis “safety study” was conducted on all QNX-sLXms. For each tested compound, we calculated an in vitro “Safety index” (Si) by relating its “anti-inflammatory half-maximal activity” (the highest dose among the IC50 of the extrinsic LPS-challenged phenotype: NF-κB activity, proinflammatory cytokine, and LDH release) to its intrinsic “toxicity” (expressed as the relative half-maximal LDH-associated cytotoxicity). The generated Si is potentially predictive of a translational “therapeutic” range: the higher the Si, the safer the molecule is. As summarized in Table S4, Si values from all tested compounds fall in a broad range (7–50).
# NF-κB = assay: LPS-induced NF-κB-driven luciferase gene reporter assay in THP-1 Lucia monocytes; format: cell-based, human; settings: for Rel. Slope: HS relative to LXA4 (1); for IC50: Homo sapiens, THP-1, read-out: Potency IC50; for IC50 / IC50 (range in words): LPS 50 ng/mL, 24 h; for Potency Rel. Pot.: IC50 relative to LXA4 (1); for Efficacy Rel. Eff.: Imax relative to LXA4 (1); for reduction of LPS-induced NF-κB-driven luciferase activity: approximate extent, 1 pM–1 μM; for (Single component) Rel. Score: Rel. Pot. / (Single component) Rel. Score: Rel. Sl.: score relative to LXA4 (1); for (Aggregate) Rel. PD Score: sum of efficacy, potency, slope scores relative to LXA4 (1)
# Protocol: Mycoplasma-free THP-1-Lucia NF-κB cells were grown in an RPMI 1640 (Gibco) medium containing 2 mM L-glutamine, 1.50 g/L sodium bicarbonate, 4.50 g/L glucose, 10 mM N-(2-hydroxyethyl)piperazine-N′-ethanesulfonic acid (HEPES), and 1 mM sodium pyruvate. Then, 10% heat-inactivated fetal bovine serum (FBS) (30 min at 56 °C), 100 μg/mL Normocin, and Pen-Strep (50 U/mL to 50 μg/mL) were also added to the growth media. As THP-1-Lucia cells were resistant to Zeocin, the latter was used as a selective antibiotic (a high dose, i.e., 100 μg/mL, was alternated every 2 weeks with a low dose, i.e., 10 μg/mL).
# LXA41 and all of the tested sLXms were dissolved in ethanol and further diluted in a culture medium (final ethanol concentration 0.1%; equivalent concentrations were used as the vehicle control). Prior to in vitro experiments, THP-1-Lucia NF-κB cells were harvested and plated at 1 × 10^5 cells/well on 96-well plates and left to settle in the incubator at 37 °C, 95% humidity, and 5% CO2, in 0.1% FBS-containing media, pretreated for 30 min with increasing doses of LXA41, sLXms (from 10^–12 to 10^–6 M), or appropriate controls, followed by stimulation with 50 ng/mL LPS for 24 h.
# NFκB activity was monitored in the human THP-1 monocytic leukemia cell line containing a stably integrated NF-κB-inducible Lucia reporter construct (as previously reported).[21] When stimulated with LPS, the transcription factor NF-κB is activated, upregulating the synthesis of proinflammatory mediators, thus bringing about an inflammatory response. In these cells, NF-κB activation is linked to a […] luciferase gene and can be measured using luminescence.
# Heat-killed listeria monocytogenes (HKLM) (10^8/mL) was used as a positive control.[28] The levels of NF-κB-induced Luciferase were then measured in a culture supernatant using QUANTI-Luc as the detection reagent, and measurements were taken on a bioluminescence reader.
# After 24 h, the levels of NF-κB-induced Lucia were assayed in a cell culture supernatant using QUANTI-Luc, as a detection reagent, on a bioluminescence reader (Synergy HT, BioTek Instruments, Inc. Vermont). Aliquots of the supernatant were retained for subsequent cytokine and LDH assays. Cellular proteins were extracted with a radioimmunoprecipitation assay (RIPA) buffer (Thermo Fisher, Ireland), supplemented with protease inhibitors (Sigma-Aldrich, Ireland). Lysates were clarified by centrifugation (3200g, 10’, 4 °C) to remove cell debris, and the cell protein level was quantified by performing a bicinchoninic acid (BCA) assay (as per the manufacturer’s instructions) reading the protein absorbance at 570 nm, using a spectrophotometer (SPECTRAMAX M2, Molecular Devices (U.K.) Limited). A “relative luminescence unit” (RLU) was obtained using the average value of the lum/abs ratio of two replicates.
# The “coding” of the heat-map indicates the arbitrary criteria to assign points to each single PD component (efficacy = Imax or Emax; potency = IC50 or EC50; slope = HS) to generate a final (aggregate) relative PD score. […] If a single PD component was equal to the reference level (x = 1), then the single-component relative score was arbitrarily set to 0 (gray). If a single PD component was smaller than the reference level (x < 1), then the single-component relative score was arbitrarily set to −1 (light red) or −2 (dark red). If the curve of a single PD component was best fitting to a flat line (x = 0), then the single-component relative score was arbitrarily set to −4 (purple) (Table S1).
Structure (SMILES),(Aggregate) Rel. PD Score (THP-1-MF0 macrophage),Potency Rel. Pot. (THP-1-MF0 macrophage),Single comp. score Rel. Pot. (THP-1-MF0 macrophage),Intrinsic Toxicity Level (THP-1 LUCIA monocytes [1]),Intrinsic Toxicity TC50 (pM) (THP-1 LUCIA monocytes [1]),IC50 (THP-1 LUCIA monocytes [2]) [nM],Safety Index TC50/IC50 (THP-1 LUCIA monocytes [2]),Rel. Slope (NF-κB),IC50 (NF-κB) [nM],Potency Rel. Pot. (NF-κB),Efficacy Rel. Eff. (NF-κB),IC50 (range in words) (NF-κB),reduction of LPS-induced NF-κB-driven luciferase activity (NF-κB),(Single component) Rel. Score: Rel. Pot. (NF-κB),(Single component) Rel. Score: Rel. Sl. (NF-κB),(Aggregate) Rel. PD Score (NF-κB),EC50 (THP-1-MF0 macrophage) [nM],Single comp. score Rel Eff. (THP-1-MF0 macrophage),further results
CC/C=C\C[C@H](O)/C=C/C=C\C=C\C=C\[C@@H](O)[C@@H](O)C/C=C\CCC(=O)O [RvD1],1,10000,2 (x ≥ 5),–,–,–,–,–,–,–,–,–,–,–,–,–,–,–,–
"COc1ccc2cc([C@H](C)C(=O)O)ccc2c1 [Naproxen, reference compound]",–,–,–,–,–,–,–,–,–,–,–,–,–,–,–,–,–,–,"% relative to carageenan-induced level (C57bl/6 mice; 4h): 118%; % relative to carageenan-induced level (C57bl/6 mice; 8h): 40%; % relative to carageenan-induced level (C57bl/6 mice; 24h): 55%; % reduction relative to carageenan-induced level (C57bl/6 mice; 48h): 60%; % relative to carageenan-induced level (C57bl/6 mice; 48h): 160%; % reduction relative to carageenan-induced level (C57bl/6 mice; 72h): 450%; % relative to carageenan-induced level (C57bl/6 mice; 72h): 550%; effect on inflammatory response (paw swelling), in words (C57bl/6 mice; (R)-6, (R)-17 2 μg/kg ip, Naproxen 50 mg/kg po): inflammation persisted after 72 h; Paw swelling Index: Mean (C57bl/6 mice; Time 4h, (R)-6, (R)-17 2 μg/kg ip, Naproxen 50 mg/kg po, 1% carrageenan): 0.08; Paw swelling Index: Mean (C57bl/6 mice; Time 8h, (R)-6, (R)-17 2 μg/kg ip, Naproxen 50 mg/kg po): 0.16; Paw swelling Index: Mean (C57bl/6 mice; Time 24h, (R)-6, (R)-17 2 μg/kg ip, Naproxen 50 mg/kg po): 0.48; Paw swelling Index: Mean (C57bl/6 mice; Time 48h, (R)-6, (R)-17 2 μg/kg ip, Naproxen 50 mg/kg po): 0.65; Paw swelling Index: Mean (C57bl/6 mice; Time 72h, (R)-6, (R)-17 2 μg/kg ip, Naproxen 50 mg/kg po): 0.55"
"CCC[C@@H](O)c1nc2ccccc2nc1/C=C/[C@@H](O)[C@@H](O)CCCC(=O)OC [(R)-7, Methyl (5S,6R,E)-5,6-Dihydroxy-8-(3-((R)-1-hydroxybutyl)quinoxalin-2-yl)oct-7-enoate]",–,–,–,Low-Mod.,"2,000 pM",0.1,20,0.55,4,0.015,1.21,“nM” range,30–35%,-2 (x < 0.1),-1 (0.01 < x < 1),-2,–,–,"intrinsic LDH release versus vehicle / spontaneous cell release (THP-1 LUCIA monocytes [1]; absence of LPS, 24 h, controls Dex 1 μM, 2 1 pM, 5 1 pM): lower than the vehicle"
CCCCC[C@H](O)[C@H](O)/C=C/C=C/C=C\C=C\[C@@H](O)CCCC(=O)O [LXB4],-2,1,–,–,–,–,–,–,–,–,–,–,–,–,–,–,5,-2,–
"CCC[C@H](O)c1nc2ccccc2nc1/C=C/[C@@H](O)[C@@H](O)CCCC(=O)OC [(S)-7, Methyl (5S,6R,E)-5,6-Dihydroxy-8-(3-((S)-1-hydroxybutyl)quinoxalin-2-yl)oct-7-enoate]",–,–,–,Low-Mod.,"110,000 pM",15,7,0.60,1,0.1,1.50,“nM” range,30–35%,-2 (x < 0.1),-1 (0.01 < x < 1),-1,–,–,Slope HS (Hill–Slope) (NF-κB; slope of concentration–response curve): -6
CC[C@@H](O)/C=C/C=C\C[C@@H](O)/C=C/C=C/C=C\[C@@H](O)CCCC(=O)O [RvE1],0,5000,2 (x ≥ 5),–,–,–,–,–,–,–,–,–,–,–,–,–,0.001,-2,–

# From publication PMC8279484 (Journal of Medicinal Chemistry, 2021)
